# Where “and” joins values, the source holds several entries; their conditions need not be identical. Identical values can stand only once. Like-named read-outs stand apart in the source and are kept apart here.
# System: mean arterial blood pressure and heart rate
# Assay: Swivel study: four-step i.v. infusion in conscious rats, PK-PD of MAP and HR
# Assay type: in vivo, rat
# Parameters: Emax,MAP (maximum compound 2-induced decrease in MAP) / Emax,HR (maximum compound 2-induced increase in HR): unit not given here
# Conditions: for EC50: rat plasma concentration
# Method: The relationship between plasma concentrations of compound 2 and mean arterial pressure (MAP) and HR, respectively, were modeled using data generated in the swivel study, including data from start of first infusion up to 2 h after end of last infusion (Dose 1–4, equivalent to 1.9, 11, 67 and 410 μg/kg per min for 15 min at each step). The baseline value, calculated as average of measurements during the 60 min baseline recording period was used as the predose value. Temporal differences between effect measurements and blood sampling for plasma analysis were accounted for by fitting a standard two-compartment PK model to the time-concentration profile for each individual animal, and subsequently using the individual parameter estimates to simulate compound 2 plasma concentrations at the times of effect measurements. Phoenix® WinNonlin® Version 6.2.1 (Certara, L.P., Princetown, NJ) was used for modelling.
# A 4-step intravenous infusion protocol was performed during continuous recording of the arterial blood pressure signal and intermittent blood sampling in seven conscious rats the day after surgical implantation of an arterial line in the abdominal aorta via the caudal artery and a venous line in the jugular vein. After a baseline recording of 60 minutes, compound 2 was given in 15-minute constant infusion steps of 1.9, 11, 67 and 410μg/kg/min (0.034-0.2ml/kg/min) followed by a washout period of 120 minutes. One rat was monitored under the same conditions as a time-matched control. Blood samples for analysis of drug exposure were taken at the end of each dose step and intermittently during the washout.
# [1] = calculated from PK-PD relationships
# [2] = conscious rats, 2 h after end of four-step i.v. infusion
compound,measurement,setting,value
"CCNC(=O)[C@H]1O[C@@H](n2cnc3c(NC(CC)CC)nc(NCCNC(=O)Nc4cc[n+](C)cc4)nc32)[C@H](O)[C@@H]1O [Compound 2, (2S,3S,4R,5R)-N-ethyl-5-[6-(1-ethylpropylamino)-2-[2-[(1-methylpyridin-1-ium-4-yl)carbamoylamino]ethylamino]purin-9-yl]-3,4-dihydroxy-tetrahydrofuran-2-carboxamide]",Concentration for 10% MAP decrease relative to plasma concentration at effective dose (fold lower),0.3 nmol/L vs 2-4 nmol/L at 10 μg/kg i.t.,10 fold
same,"kE0 (first-order rate constant, effect compartment)","PK-PD model of MAP, mean ± SD",0.058 ± 0.039 min⁻¹
same,EC50,"Rattus norvegicus, iv, sigmoid Emax model, mean ± SD, read-out: EC50,MAP (plasma concentration that induces half the maximum MAP decrease)",0.5 nM
same,EC50,"Rattus norvegicus, iv, simple Emax model on mean data, read-out: EC50,HR",0.18 nM
same,Plasma concentration that produces 10% increase from baseline HR,[1],0.04 nM
same,Total plasma concentration that causes 10% decrease from baseline MAP,[1],0.3 ± 0.2 nmol/L and 0.3 nmol/L
same,Blood pressure 2 h postdosing,[2],100 ± 7 mmHg
same,Heart rate 2 h postdosing,[2],489 ± 41 bpm
same,Heart rate at dose 2,"conscious rats, i.v. infusion 11 μg/kg per min for 15 min, baseline 381 ± 21",472 ± 33 bpm
same,Blood pressure at dose 3,"conscious rats, i.v. infusion 67 μg/kg per min for 15 min, baseline 114 ± 9",98 ± 9 mmHg
same,Core body temperature,highest dose (410 μg/kg per min i.v.),significant reduction
same,EC50,"sigmoid Emax model, mean ± SD, read-out: EC50,MAP (plasma concentration that induces half the maximum MAP decrease)",0.52 ± 0.16 nM
same,"Emax,MAP (maximum compound 2-induced decrease in MAP)","sigmoid Emax model, mean ± SD",37 ± 11
same,"Emax,HR (maximum compound 2-induced increase in HR)",simple Emax model on mean data,158
